Laboratory results: PMC10157742, “Supramolecular nanofibers co-loaded with dabrafenib and doxorubicin for targeted and synergistic therapy of differentiated thyroid carcinoma” (Theranostics, 2023)

What was measured:
BCPAP cells [1] = experiment: In vitro cytotoxicity, MTT assay; assay type: cell-based; conditions: Homo sapiens, 48 h, Da/Dox mass ratio 1:1, value given for Dox, n = 3
Experimental: The cytotoxicity of peptides, free agents, and the co-assemblies towards BCPAP and L02 cells was evaluated using the standard MTT assay. Briefly, the cells were seeded into 96-well plates at a density of 8×10^3 cells per well in 100μL of DMEM medium containing 10% FBS and 1% penicillin-streptomycin. After overnight pre-incubation, the cells were treated with the compound, free agents, and co-assemblies at different concentrations for 48 h. Untreated tumor cells were used as controls. Subsequently, the medium was replaced with an MTT solution (100 μL, 0.5 mg/mL) and further cultured for 4 h. Finally, the supernatant was removed and 100 μL of DMSO was added to each well to dissolve the purple crystals. Cell viability was measured using a microplate reader by recording the absorbance of the formazan product at 570 nm.

BCPAP cells [2] = experiment: Cell apoptosis analysis, Annexin V-APC/7-AAD flow cytometry; assay type: cell-based, human; conditions: 36 h, 0.5 µM (Dox or Da)
Experimental: Apoptosis in BCPAP cells was measured using an Annexin V-APC/7-AAD Apoptosis Detection Kit. Briefly, BCPAP cells in DMEM were seeded into 6-well plates at a density of 3×10^5 cells per well and incubated overnight. After treatment with PBS and Dox concentration of 0.5 µM for 36 h, the cells were trypsinized, collected, washed twice with cold PBS, and centrifuged at 1500 rpm for 5 min. The precipitated cells were resuspended in 500 μL Annexin V-APC binding buffer and incubated with 5 μL Annexin V-APC and 5 μL 7-AAD at room temperature for 15 min in the dark. The samples were then analyzed using a flow cytometer.

BCPAP xenograft = experiment: In vivo antitumor activity; conditions: NSG mice, i.v. every four days five times, 0.5 mg/kg Dox or Da, day 20, mean ± SD, n = 4
Experimental: (§1) All animal experiments were performed according to the protocol approved by the Animal Care and Use Committee of the Tianjin Medical University Cancer Institute and Hospital. NSG mice (5 weeks, female) were purchased from Gempharmatech Co., Ltd. (Jiangsu, China). […] The body weight and tumor size of each mouse were monitored and recorded every two days during the treatment process of 20 days. The tumor volume (V) was measured with a digital caliper and calculated using the equation: V= (L×W^2)/2, where W and L refer to the […] diameters of the tumors, respectively. At the end of the experiment, the mice were euthanized, and the tumor tissues and main organs (heart, liver, spleen, lung, and kidney) were photographed, weighed, and collected. Furthermore, the collected ex vivo tumors and main organs were fixed with 4% paraformaldehyde for the subsequent hematoxylin and eosin (H&E), terminal deoxynucleotidyl transferase-mediated deoxyuridine triphosphate nick end labeling (TUNEL), and immunohistochemical staining, including Ki67, BRAF V600E, p-ERK, Bcl-2, Bax and Cleaved-Caspase 3. Blood was obtained from the mouse eye socket for blood biochemistry and routine blood analysis, which was compared with the blank group without tumor inoculation.

[3] = Body weight and serum ALT in the antitumor study; assay type: in vivo; conditions: tumor-bearing NSG mice, n = 4
Experimental: as §1

SMILES | IC50 (BCPAP cells [1]) [nM] | total apoptosis rate (BCPAP cells [2]) [%] | tumor weight at the end of the experiment (BCPAP xenograft) [mg] | body weight ([3]; 0.5 mg/kg i.v. every four days five times, 20 days) | serum glutamic pyruvic transaminase (ALT) level ([3]; end of the antitumor experiment)
CC(C)(C)c1nc(-c2cccc(NS(=O)(=O)c3c(F)cccc3F)c2F)c(-c2ccnc(N)n2)s1 [Da, dabrafenib] | 2080 | 5.17 | 459.6 ± 43.2 |  | 
COc1cccc2c1C(=O)c1c(O)c3c(c(O)c1C2=O)C[C@@](O)(C(=O)CO)C[C@@H]3O[C@H]1C[C@H](N)[C@H](O)[C@H](C)O1 [Dox, doxorubicin] | 1720 | 7.08 | 284.7 ± 36.4 | slight decrease | elevated ALT levels
